In patent US20240245057A1, “INSECTICIDAL COMPOSITION FOR AGRICULTURAL OR HORTICULTURAL USE AND METHOD OF CONTROLLING AGRICULTURAL OR HORTICULTURAL PEST” (SDS BIOTECH K.K, priority 2021, published 2024):
Where a name gives a salt, the structure may show the parent alone. Read-outs that look alike come from different tables or passages of the source.

Assays:
Format in all cases: in vivo
[1] = system: 3rd instar larvae of Helicoverpa armigera; conditions: for insecticidal efficacy against the 3rd instar larvae of Helicoverpa armigera (in words): hydrochloride alone; for Number of dead insects/Number of test insects: 4 days
Source text: Each insecticidal protein solution obtained was admixed with prumycin hydrochloride prepared in Production Example 1 or kanosamine hydrochloride (Sigma-Aldrich Japan, LLC.) at a prescribed concentration to prepare a solution containing the insecticidal protein and prumycin hydrochloride or kanosamine hydrochloride. The obtained solution was admixed with artificial feed (Insecta LFS (manufactured by Nosan Corporation)) as shown in Tables 10 to 13 so that the content of each insecticidal protein was 0.063 to 8 μg/g of the artificial feed and the content of prumycin hydrochloride or kanosamine hydrochloride was 10 μg/g of the artificial feed. In this way, each artificial feed containing the insecticidal protein and prumycin hydrochloride or kanosamine hydrochloride was prepared. In addition, the above-described insecticidal protein solution, prumycin hydrochloride, or kanosamine hydrochloride alone was admixed with the artificial feed as shown in Tables 10 to 13 so that the content of each insecticidal protein was 0.063 to 8 μg/g of the artificial feed or the content of prumycin hydrochloride or kanosamine hydrochloride was […] of the artificial feed, respectively. In this way, each artificial feed containing the insecticidal protein, prumycin hydrochloride, or kanosamine hydrochloride alone was prepared. Each artificial feed containing or free of each substance thus obtained was placed on a petri dish (35 mm in diameter and 10 mm in height), and one 3rd instar larva of Helicoverpa armigera reared in a rearing room at 25° C. was released into each petri dish (10 replicates). Each petri dish was closed and kept at 25° ° C. for 4 days.
The number of dead insects was then macroscopically examined by observing the inside of each petri dish, and the LC50 value was calculated by the probit method. Next, based on the following equation, the ratio of the test plot without prumycin hydrochloride or kanosamine hydrochloride to the test plot with prumycin hydrochloride or kanosamine hydrochloride was calculated to determine the increase in insecticidal activity when prumycin hydrochloride or kanosamine hydrochloride was added.

[2] = system: 3rd instar larvae of Spodoptera litura; conditions: for insecticidal efficacy against the 3rd instar larvae of Spodoptera litura (in words): hydrochloride alone; for Number of dead insects/Number of test insects: hydrochloride alone 10 μg/g Feed, insecticidal protein Absent, 5 days
Protocol: Each artificial feed containing or free of each substance thus obtained was placed on a petri dish (90 mm in diameter and 15 mm in height), and ten 3rd instar larva of Spodoptera litura reared in a rearing room at 25° C. were released into each petri dish (3 replicates). Each petri dish was closed and kept at 25° C. for 5 days.
After that, the number of dead insects was macroscopically counted by observing the inside of the petri dish. The LC50 values were calculated by the probit method, and the increase in insecticidal activity due to the addition of prumycin or kanosamine was calculated based on the same formula as in Test Example 4 above.

[3] = system: 3rd instar larvae of Spodoptera litura; experiment: Test of efficacy against 3rd instar larvae of Spodoptera litura (dried Bt cultures mixed into artificial feed); conditions: for Measured insecticidal rate (%): agent alone, 2 μg/g Feed, 25° C., 5 days; for insecticidal efficacy against the 3rd instar larvae of Spodoptera litura (in words): alone, application concentration of 2 μg/g feed
Protocol: A suspension of dried Btk culture or dried Bta culture was prepared by adding distilled water to the dried Btk culture or dried Bta culture prepared in Preparation Example 1. This suspension was admixed with prumycin hydrochloride prepared in Production Example 1 or kanosamine hydrochloride (Sigma-Aldrich Japan, LLC) at the prescribed concentration to prepare a solution. The obtained solution was admixed with artificial feed (Insecta LFS (manufactured by Nosan Corporation)) as shown in Tables 1 to 6 so that the content of the dried Btk culture or Bta culture was 0.2 to 2 mg/g of the artificial feed and the content of prumycin hydrochloride or kanosamine hydrochloride was 2 μg/g of the artificial feed. The artificial feed containing the dried Btk culture or dried Bta culture mixed with prumycin hydrochloride or kanosamine hydrochloride was placed on a petri dish (90 mm in diameter and 15 mm in height), and ten 3rd instar larvae of Spodoptera litura reared in a rearing room at 25° C. were released into the petri dish (triplicate). Each petri dish was closed and kept at 25° C. for 5 days.
The number of dead insects was then macroscopically counted by observing the inside of the petri dish, and the (measured) insecticidal rate (%) of the number of dead insects to the total number of reared insects was determined.
In addition, the suspension of dried Btk culture alone, the suspension of dried Bta alone, prumycin hydrochloride alone, kanosamine hydrochloride alone, or a combination of prumycin hydrochloride and kanosamine hydrochloride was added to the artificial feed to achieve the application concentration per g of the artificial feed as shown in Tables 1 to 6. Except the above, ten 3rd instar larvae of Spodoptera litura were released into a petri dish (triplicate) and kept at 25° ° C. for 5 days, as in the above Example.
The inside of the petri dish was then observed and the (measured) insecticidal rate (%) was determined in the same way as in the above Example.
The expected theoretical insecticidal rate (%) when treated with the dried Btk culture or dried Bta culture mixed with prumycin hydrochloride or kanosamine hydrochloride was determined by Colby's calculation formula ([…]). […]
The presence or absence of synergistic effect was determined by comparing the theoretical and measured insecticidal rates (%) in the case of using the dried Btk culture or dried Bta culture in combination with prumycin hydrochloride or kanosamine hydrochloride.
Specifically, the case where the measured value was larger than the theoretical value was judged as “having a synergistic effect”, and the case where the measured value was equal to or smaller than the theoretical value was judged as “having no synergetic effect” with respect to the insecticidal rate (%).

[4] = hydrochloride alone 10 μg/g Feed, insecticidal protein Absent

CC(N)C(=O)NC1COC(O)C(N)C1O [Prumycin hydrochloride, 4-N-D-alanyl-2,4-diamino-2,4-dideoxyarabinose]
insecticidal efficacy against the 3rd instar larvae of Helicoverpa armigera (in words) [1]: no insecticidal efficacy | Number of dead insects/Number of test insects [1, 4]: 0/10 | insecticidal efficacy against the 3rd instar larvae of Spodoptera litura (in words) [2]: no insecticidal efficacy | Number of dead insects/Number of test insects [2]: 0/10 | Measured insecticidal rate (%) [3]: 0.0% | insecticidal efficacy against the 3rd instar larvae of Spodoptera litura (in words) [3]: no insecticidal efficacy

N[C@H]1[C@H](O)[C@@H](CO)OC(O)[C@@H]1O (stereo partly drawn) [Kanosamine hydrochloride, 3-amino-3-deoxy-D-glucopyranose]
insecticidal efficacy against the 3rd instar larvae of Helicoverpa armigera (in words) [1]: no insecticidal efficacy | Number of dead insects/Number of test insects [1, 4]: 0/10 | insecticidal efficacy against the 3rd instar larvae of Spodoptera litura (in words) [2]: no insecticidal efficacy | Number of dead insects/Number of test insects [2]: 0/10 | Measured insecticidal rate (%) [3]: 0.0% | insecticidal efficacy against the 3rd instar larvae of Spodoptera litura (in words) [3]: no insecticidal efficacy

Cry1A(c): Bacillus thuringiensis insecticidal protein expressed and purified in E. coli
Number of dead insects/Number of test insects ([1]; insecticidal protein alone 0.063 μg/g Feed): 0/10 | Number of dead insects/Number of test insects ([1]; insecticidal protein alone 0.125 μg/g Feed): 0/10 | Number of dead insects/Number of test insects ([1]; insecticidal protein alone 0.25 μg/g Feed): 0/10 | Number of dead insects/Number of test insects ([1]; insecticidal protein alone 0.5 μg/g Feed): 1/10 | Number of dead insects/Number of test insects ([1]; insecticidal protein alone 1 μg/g Feed): 6/10 | Number of dead insects/Number of test insects ([1]; insecticidal protein alone 2 μg/g Feed): 7/10
